Assay results from PubChem BioAssay AID328 (DTP/NCI, 2004).
Values joined by “and” are separate entries in the source; they are usually repeats but may differ in a detail not shown here. Equal values may be shown once. Inconclusive results and toxic doses are left out.

System: BDF1 mice, P388 leukemia ip, median survival T/C
Assay: NCI In Vivo Anticancer Drug Screen. Data for tumor model P388 Leukemia (intraperitoneal) in B6D2F1 (BDF1) mice
Conditions: endpoint: median survival time, higher = longer survival
In short: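 Each value expresses how treatment altered survival: treated-mouse outcome over vehicle-mouse outcome, both groups bearing the transplanted tumour.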

[1] = dose: 25.0 mg/kg/injection, schedule: Q01DX009 (ip), vehicle: saline with Tween-80
[2] = dose: 25.0 mg/kg/injection, schedule: Q04DX003 (ip), vehicle: saline with Tween-80
[3] = dose: 50.0 mg/kg/injection, schedule: Q04DX003 (ip), vehicle: saline with Tween-80
[4] = dose: 100.0 mg/kg/injection, schedule: Q04DX003 (ip), vehicle: saline with Tween-80
[5] = dose: 200.0 mg/kg/injection, schedule: Q04DX003 (ip), vehicle: saline with Tween-80
[6] = dose: 400.0 mg/kg/injection, schedule: Q04DX003 (ip), vehicle: saline with Tween-80
[7] = dose: 50.0 mg/kg/injection, schedule: Q01DX009 (ip), vehicle: Klucel (hydroxypropylcellulose) (HPC)

C[n+]1cc2cc(O)c(O)cc2c2ccc3cc(O)c(O)cc3c21
T/C (dose: 20.0 mg/kg/injection, schedule: Q01DX009 (ip), vehicle: saline): 104 % of control
T/C (dose: 40.0 mg/kg/injection, schedule: Q01DX009 (ip), vehicle: saline): 96 % of control
T/C (dose: 80.0 mg/kg/injection, schedule: Q01DX009 (ip), vehicle: saline): 91 % of control
T/C (dose: 120.0 mg/kg/injection, schedule: Q01DX009 (ip), vehicle: saline): 86 % of control
T/C (dose: 240.0 mg/kg/injection, schedule: Q01DX009 (ip), vehicle: saline): 106 % of control

CC(=O)OC1CC(OC2C(O)CC(OC3C(O)CC(OC4CCC5(C)C(CCC6C5CCC5(C)C(C7=CC(=O)OC7)CCC65O)C4)OC3C)OC2C)OC(C)C1OC1OC(CO)C(O)C(O)C1O (configuration not stated)
T/C (dose: 5.0 mg/kg/injection, schedule: Q01DX010 (ip), vehicle: carboxymethylcellulose (CMC)): 90 % of control

COC(=O)c1ccc(Cl)c(Cl)c1
T/C [1]: 101 % of control
T/C [2]: 102 % of control
T/C (dose: 50.0 mg/kg/injection, schedule: Q01DX009 (ip), vehicle: saline with Tween-80): 116 % of control
T/C [3]: 94 % of control and 100 % of control and 108 % of control
T/C [4]: 97 % of control and 98 % of control and 103 % of control
T/C (dose: 150.0 mg/kg/injection, schedule: Q04DX003 (ip), vehicle: saline with Tween-80): 98 % of control
T/C [5]: 108 % of control and 112 % of control
T/C (dose: 300.0 mg/kg/injection, schedule: Q04DX003 (ip), vehicle: saline with Tween-80): 110 % of control
T/C [6]: 107 % of control

CC(C)N(c1c2c(oc(=O)c1Cl)CCSC2)C(C)C
T/C (dose: 100.0 mg/kg/injection, schedule: Q04DX002 (ip), vehicle: saline with Tween-80): 99 % of control
T/C (dose: 200.0 mg/kg/injection, schedule: Q04DX002 (ip), vehicle: saline with Tween-80): 101 % of control
T/C (dose: 400.0 mg/kg/injection, schedule: Q04DX002 (ip), vehicle: saline with Tween-80): 96 % of control

C[C@@H]1CCC[C@@H](NC(=O)N(CCCl)N=O)C1
T/C (dose: 9.37 mg/kg/injection, schedule: Q01DX009 (ip), vehicle: Klucel (hydroxypropylcellulose) (HPC)): 151 % of control
T/C (dose: 18.75 mg/kg/injection, schedule: Q01DX009 (ip), vehicle: Klucel (hydroxypropylcellulose) (HPC)): 157 % of control
T/C (dose: 37.5 mg/kg/injection, schedule: Q01DX009 (ip), vehicle: Klucel (hydroxypropylcellulose) (HPC)): 252 % of control
T/C (dose: 75.0 mg/kg/injection, schedule: Q01DX009 (ip), vehicle: Klucel (hydroxypropylcellulose) (HPC)): 120 % of control

Cc1ccc(C2NC(=O)c3ccccc3N2)s1 (configuration not stated)
T/C [7]: 107 % of control and 113 % of control

CC1OC(O[C@@H]2C=C3CC[C@@H]4[C@H](CC[C@]5(C)[C@@H](c6ccc(=O)oc6)CC[C@]45O)[C@@]3(C)CC2)C(O)C(OC2OC(CO)C(O)C(O)C2O)C1O (some centres not stated)
T/C (dose: 0.8 mg/kg/injection, schedule: Q01DX010 (sc), vehicle: steriod suspending solution): 100 % of control
T/C (dose: 1.6 mg/kg/injection, schedule: Q01DX010 (sc), vehicle: steriod suspending solution): 95 % of control
T/C (dose: 2.0 mg/kg/injection, schedule: Q01DX010 (ip), vehicle: carboxymethylcellulose (CMC)): 110 % of control
T/C (dose: 3.25 mg/kg/injection, schedule: Q01DX010 (sc), vehicle: steriod suspending solution): 110 % of control
T/C (dose: 4.0 mg/kg/injection, schedule: Q01DX010 (ip), vehicle: carboxymethylcellulose (CMC)): 100 % of control
T/C (dose: 7.5 mg/kg/injection, schedule: Q01DX010 (sc), vehicle: steriod suspending solution): 115 % of control
T/C (dose: 8.0 mg/kg/injection, schedule: Q01DX010 (ip), vehicle: carboxymethylcellulose (CMC)): 95 % of control
T/C (dose: 15.0 mg/kg/injection, schedule: Q01DX010 (sc), vehicle: steriod suspending solution): 105 % of control
T/C (dose: 30.0 mg/kg/injection, schedule: Q01DX010 (sc), vehicle: steriod suspending solution): 100 % of control

Cc1cc(NC(=O)Nc2ccc(C3=NCCCN3)cc2)ccc1NC(=O)Nc1ccc(C2=NCCCN2)cc1
T/C (dose: 29.0 mg/kg/injection, schedule: Q01DX009 (ip), vehicle: saline): 166 % of control
T/C (dose: 45.0 mg/kg/injection, schedule: Q01DX009 (ip), vehicle: saline): 153 % of control
T/C (dose: 65.0 mg/kg/injection, schedule: Q01DX009 (ip), vehicle: saline): 157 % of control
T/C (dose: 100.0 mg/kg/injection, schedule: Q01DX009 (ip), vehicle: saline): 216 % of control
T/C (dose: 130.0 mg/kg/injection, schedule: Q01DX009 (ip), vehicle: saline): 243 % of control
T/C (dose: 200.0 mg/kg/injection, schedule: Q01DX009 (ip), vehicle: saline): 227 % of control and 219 % of control
T/C (dose: 300.0 mg/kg/injection, schedule: Q01DX009 (ip), vehicle: saline): 169 % of control
T/C (dose: 400.0 mg/kg/injection, schedule: Q01DX009 (ip), vehicle: saline): 98 % of control

CS(=O)(=O)OCCN(CCOS(C)(=O)=O)c1ccc(C=Nc2ccc3oc(=O)ccc3c2)cc1
T/C [4]: 212 % of control
T/C (dose: 132.0 mg/kg/injection, schedule: Q04DX003 (ip), vehicle: saline with Tween-80): 165 % of control
T/C [5]: 243 % of control

CCOC(=O)C1=C(Nc2ccc([N+](=O)[O-])cc2)CCCC1
T/C (dose: 50.0 mg/kg/injection, schedule: Q01DX009 (ip), vehicle: saline): 87 % of control

CCCN1CSC(=S)N(Cc2ccccc2)C1
T/C (dose: 100.0 mg/kg/injection, schedule: Q01DX009 (ip), vehicle: saline with Tween-80): 90 % of control
T/C [4]: 95 % of control
T/C (dose: 200.0 mg/kg/injection, schedule: Q01DX009 (ip), vehicle: saline with Tween-80): 100 % of control
T/C [5]: 95 % of control
T/C (dose: 400.0 mg/kg/injection, schedule: Q01DX009 (ip), vehicle: saline with Tween-80): 90 % of control
T/C [6]: 95 % of control

Clc1ccc(Oc2ccc(N3C=Nc4ccc(Oc5ccc(Cl)cc5)cc4C3)cc2)cc1
T/C (dose: 100.0 mg/kg/injection, schedule: Q04DX003 (ip), vehicle: alcohol): 100 % of control
T/C (dose: 200.0 mg/kg/injection, schedule: Q04DX003 (ip), vehicle: alcohol): 100 % of control
T/C (dose: 400.0 mg/kg/injection, schedule: Q04DX003 (ip), vehicle: alcohol): 95 % of control

Nc1ccc(OCc2ccccc2)cc1
T/C (dose: 6.25 mg/kg/injection, schedule: Q01DX009 (ip), vehicle: saline with Tween-80): 90 % of control
T/C (dose: 12.5 mg/kg/injection, schedule: Q01DX009 (ip), vehicle: saline with Tween-80): 100 % of control
T/C [1]: 100 % of control
T/C [2]: 95 % of control
T/C [3]: 100 % of control
T/C [4]: 100 % of control

NCc1cn(C2OC(CO)C(O)C2O)c2ncnc(N)c12 (configuration not stated)
T/C (dose: 1.56 mg/kg/injection, schedule: Q01DX009 (ip), vehicle: saline): 91 % of control and 99 % of control
T/C (dose: 3.12 mg/kg/injection, schedule: Q01DX009 (ip), vehicle: saline): 100 % of control and 123 % of control
T/C (dose: 3.12 mg/kg/injection, schedule: Q04DX003 (ip), vehicle: saline): 95 % of control
T/C (dose: 6.25 mg/kg/injection, schedule: Q04DX003 (ip), vehicle: saline): 91 % of control

COc1cccc2c1CCCC2=O
T/C [7]: 96 % of control
T/C (dose: 100.0 mg/kg/injection, schedule: Q01DX009 (ip), vehicle: Klucel (hydroxypropylcellulose) (HPC)): 104 % of control
T/C (dose: 200.0 mg/kg/injection, schedule: Q01DX009 (ip), vehicle: Klucel (hydroxypropylcellulose) (HPC)): 104 % of control

CCCCCCCCCCCCNC(=O)CCC(=O)O
T/C (dose: 37.5 mg/kg/injection, schedule: Q01DX009 (ip), vehicle: saline with Tween-80): 91 % of control
T/C (dose: 75.0 mg/kg/injection, schedule: Q01DX009 (ip), vehicle: saline with Tween-80): 87 % of control

FC(F)(F)/C([S-])=C(/[S-])C(F)(F)F.FC(F)(F)/C([S-])=C(/[S-])C(F)(F)F.FC(F)(F)/C([S-])=C(/[S-])C(F)(F)F.FC(F)(F)/C([S-])=C(/[S-])C(F)(F)F.[Co+3].[Co+3]
T/C (dose: 12.5 mg/kg/injection, schedule: Q04DX003 (ip), vehicle: other): 110 % of control
T/C (dose: 25.0 mg/kg/injection, schedule: Q04DX003 (ip), vehicle: other): 120 % of control

OCC1OC(n2cnc3c(SSc4ncnc5c4ncn5C4OC(CO)C(O)C4O)ncnc32)C(O)C1O (configuration not stated)
T/C (dose: 118.0 mg/kg/injection, schedule: Q01DX010 (ip), vehicle: saline): 104 % of control
T/C (dose: 178.0 mg/kg/injection, schedule: Q01DX010 (ip), vehicle: saline): 104 % of control
